Measured values as given in patent publication US11001596B2, “7-phenylethylamino-4H-pyrimido[4,5-d][1,3]oxazin-2-one compounds as mutant IDH1 and IDH2 inhibitors” (Eli Lilly and Company, priority 2016, dated 2021).

How the values were obtained:
Wild-type IDH1 = Wild-type IDH1 (Homo sapiens (Human), UniProt O75874); experiment: Biochemical assay for wild-type IDH1 enzyme (isocitrate to αKG, LC-MS); details: pH 7.5
Procedure: (§1) IDH1 and IDH2 enzymes catalyze the conversion of isocitrate to αKG. […] Following derivatization at room temperature for one hour, samples are extracted with 600 μL of EtOAc.

Wild-type IDH2 = Wild-type IDH2 (Homo sapiens (Human), UniProt P48735); experiment: Biochemical assay for wild-type IDH2 enzyme (isocitrate to αKG, LC-MS); details: pH 7.5
Sequence of Wild-type IDH2 (P48735 40-452): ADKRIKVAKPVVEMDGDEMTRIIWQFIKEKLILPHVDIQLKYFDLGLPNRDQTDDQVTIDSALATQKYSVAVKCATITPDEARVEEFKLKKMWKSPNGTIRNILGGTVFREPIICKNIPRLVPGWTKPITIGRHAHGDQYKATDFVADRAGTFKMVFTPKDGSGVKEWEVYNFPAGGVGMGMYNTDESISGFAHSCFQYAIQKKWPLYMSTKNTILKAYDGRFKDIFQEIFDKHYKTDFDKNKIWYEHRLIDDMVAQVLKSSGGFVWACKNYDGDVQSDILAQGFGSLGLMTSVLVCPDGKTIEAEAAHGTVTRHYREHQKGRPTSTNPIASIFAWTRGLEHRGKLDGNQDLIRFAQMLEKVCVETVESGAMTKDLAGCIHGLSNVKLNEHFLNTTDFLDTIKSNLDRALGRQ
Procedure: as §1

IDH2-R140Q = IDH2-R140Q (Homo sapiens (Human), UniProt P48735, R140Q); experiment: Biochemical assay for IDH2 R140Q mutant enzyme (conversion of αKG to 2HG, RapidFire MS); details: IDH2/R140Q IC50, 1.2 nM enzyme, 90 minutes, pH 7.0
Sequence of IDH2-R140Q (P48735 40-452 R140Q): as the sequence (P48735 40-452) above, with R101Q counted along it

IDH2-R172K = IDH2-R172K (Homo sapiens (Human), UniProt P48735, R172K); experiment: Biochemical assay for IDH2 R172K mutant enzyme (conversion of αKG to 2HG, RapidFire MS); details: IDH2/R172K IC50, 1.2 nM enzyme, 90 minutes, pH 7.0
Sequence of IDH2-R172K (P48735 40-452 R172K): as the sequence (P48735 40-452) above, with R133K counted along it

Sequence of Wild-type IDH1 (O75874 whole entry): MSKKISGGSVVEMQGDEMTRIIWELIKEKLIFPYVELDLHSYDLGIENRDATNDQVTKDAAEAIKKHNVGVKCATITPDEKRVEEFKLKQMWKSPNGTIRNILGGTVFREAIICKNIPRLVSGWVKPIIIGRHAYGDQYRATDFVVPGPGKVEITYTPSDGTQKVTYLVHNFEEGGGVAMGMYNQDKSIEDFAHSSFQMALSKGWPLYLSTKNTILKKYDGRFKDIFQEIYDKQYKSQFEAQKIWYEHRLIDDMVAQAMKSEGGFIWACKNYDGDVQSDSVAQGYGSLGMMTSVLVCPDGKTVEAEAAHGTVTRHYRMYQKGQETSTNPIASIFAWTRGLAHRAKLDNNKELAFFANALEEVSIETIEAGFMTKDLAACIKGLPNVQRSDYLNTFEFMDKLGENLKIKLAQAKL

Structure (SMILES)	IC50 (Wild-type IDH1) [nM]	IC50 (Wild-type IDH2) [nM]	IC50 (IDH2-R140Q) [nM]	IC50 (IDH2-R172K) [nM]
C=CC(=O)N1CCN(C(CC2CC2)c2ccc([C@H](C)Nc3ncc4c(n3)N(C)C(=O)OC4)cc2)CC1 (single isomer, unassigned) [Example 4]	302	3700	81.1	28
C=CC(=O)N1CCN(C(CC)c2ccc([C@H](C)Nc3ncc4c(n3)N(CC)C(=O)OC4)cc2)CC1 (single isomer, unassigned) [Example 11]	345	2080	54.3	20
C=CC(=O)N1CCN([C@@H](CC2CC2)c2ccc([C@H](C)Nc3ncc4c(n3)N(CC)C(=O)OC4)cc2)CC1 [Example 2, 7-[[(1S)-1-[4-[(1S)-2-cyclopropyl-1-(4-prop-2-enoylpiperazin-1-yl)ethyl]phenyl]ethyl]amino]-1-ethyl-4H-pyrimido[4,5-d][1,3]oxazin-2-one]	105 ± 113	884 ± 748	36.9	11.5
C=CC(=O)N1CCN(C(CC(C)C)c2ccc([C@H](C)Nc3ncc4c(n3)N(CC)C(=O)OC4)cc2)CC1 (single isomer, unassigned) [Example 8]	237	1620	46	17
C=CC(=O)N1CCN(C(CCOC)c2ccc([C@H](C)Nc3ncc4c(n3)N(CC)C(=O)OC4)cc2)CC1 (single isomer, unassigned) [Example 13]	456	7030	239	39
C=CC(=O)N1CCN(C(CC)c2ccc([C@H](C)Nc3ncc4c(n3)N(CC)C(=O)OC4)cc2)CC1 (single isomer, unassigned) [Example 12]	277	3220	134	26.3
C=CC(=O)N1CCN(C(CC(C)C)c2ccc([C@H](C)Nc3ncc4c(n3)N(CC)C(=O)OC4)cc2)CC1 (single isomer, unassigned) [Example 7]	233	1530	74.3	22.4
C=CC(=O)N1CCN([C@H](CC2CC2)c2ccc([C@H](C)Nc3ncc4c(n3)N(CC)C(=O)OC4)cc2)CC1 [Example 1, 7-[[(1S)-1-[4-[(1R)-2-Cyclopropyl-1-(4-prop-2-enoylpiperazin-1-yl)ethyl]phenyl]ethyl]amino]-1-ethyl-4H-pyrimido[4,5-d][1,3]oxazin-2-one]	85.4 ± 107	801 ± 745	113	32.8
C=CC(=O)N1CCN(C(CC(C)C)c2ccc([C@H](C)Nc3ncc4c(n3)N(CC)C(=O)OC4)cc2)CC1 (stereo partly drawn) [Example 6, 1-Ethyl-7-[[(1S)-1-[4-[3-methyl-1-(4-prop-2-enoylpiperazin-1-yl)butyl]phenyl]ethyl]amino]-4H-pyrimido[4,5-d][1,3]oxazin-2-one]	54.9	493		
C=CC(=O)N1CCN(C(CC2CC2)c2ccc([C@H](C)Nc3ncc4c(n3)N(C)C(=O)OC4)cc2)CC1 (single isomer, unassigned) [Example 3]	425	3370	64.8	15.6
C=CC(=O)N1CCN(C(CCOC)c2ccc([C@H](C)Nc3ncc4c(n3)N(CC)C(=O)OC4)cc2)CC1 (single isomer, unassigned) [Example 14]	392	7400	746	162
